Holding throughout (type): cell-based
The subject of assay [1] is Escherichia coli K-12 wild-type strain (W3110/ATCC27325). Particulars: lowest concentration completely inhibiting growth, 37 °C, 16 h; range 2–100 μM. Put shortly: (§1)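 Read-out was absorbance after 16 h shaking incubation at 37 °C. Inoculum: Iso-sensitest broth culture at A650nm 0.07, diluted ten-fold; peptoids tested at final 2–100 µM in twofold steps. Triplicate wells.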

In assay [2] the test system is Staphylococcus epidermidis (laboratory strain from clinical isolate). Conditions: lowest concentration completely inhibiting growth, 37 °C, 16 h; range 2–100 μM. Put shortly: as §1
Assay [3] relates to Pseudomonas aeruginosa PA01 (ATCC 15692). Put shortly: as §1
For assay [4], the system named is Staphylococcus aureus (3R7089 strain Oxford/ATCC9144). Put shortly: as §1
[5] abbreviates: lowest concentration completely inhibiting growth, 37 °C, 16 h, range 2–100 μM.

Read-outs that look alike come from different tables or passages of the source. Square brackets hold non-standard residues; d marks the D form. Peptide text beside a SMILES is read from it. N(4-F-Bzl)Gly = O=C(O)CNCc1ccc(F)cc1; Nlys = NCCCCNCC(=O)O

As for `C[C@@H](c1ccccc1)N(CC(N)=O)C(=O)CN(Cc1ccc(F)cc1)C(=O)CN(CCCCN)C(=O)CN(C(=O)CN(Cc1ccc(F)cc1)C(=O)CN(CCCCN)C(=O)CN(C(=O)CN(Cc1ccc(F)cc1)C(=O)CNCCCCN)[C@@H](C)c1ccccc1)[C@@H](C)c1ccccc1` [Peptoid 27, (NLysNpfbNspe)3], the “MIC E. coli” value in assay [1] was determined as 25 µM. The “MIC S. epidermidis” value in assay [2] stood at 2 µM. For the same molecule, in assay [3] (setting [5]), the “MIC P. aeruginosa” value stood at 25 µM. The “MIC S. aureus” value in assay [4] (setting [5]) amounted to 3 µM.
In the case of `NCCCCNCC(=O)N(CC(=O)N(CC(=O)N(CCCCN)CC(=O)N(CC(=O)N(CC(=O)N(CCCCN)CC(=O)N(CC(=O)N(CC(=O)N(CCCCN)CC(=O)N(CC(=O)N(CC(N)=O)Cc1ccc(F)cc1)Cc1ccc(F)cc1)Cc1ccc(F)cc1)Cc1ccc(F)cc1)Cc1ccc(F)cc1)Cc1ccc(F)cc1)Cc1ccc(F)cc1)Cc1ccc(F)cc1` [Peptoid 22, (NLysNpfbNpfb)4] (H-[Nlys][N(4-F-Bzl)Gly][N(4-F-Bzl)Gly][Nlys][N(4-F-Bzl)Gly][N(4-F-Bzl)Gly][Nlys][N(4-F-Bzl)Gly][N(4-F-Bzl)Gly][Nlys][N(4-F-Bzl)Gly][N(4-F-Bzl)Gly]-NH2), the “MIC E. coli” value in assay [1] amounted to 13 µM. Moreover, in assay [2], the “MIC S. epidermidis” value was 1 µM. In addition, the “MIC P. aeruginosa” value in assay [3] (setting [5]) was found to be 25 µM. Moreover, the “MIC S. aureus” value in assay [4] (ATCC9144, 16 h) stood at 2 µM; in assay [4] (setting [5]) it was 2 µM.
For `NCCCCNCC(=O)N(CC(=O)N(CC(=O)N(CCCCN)CC(=O)N(CC(=O)N(CC(=O)N(CCCCN)CC(=O)N(CC(=O)N(CC(=O)N(CCCCN)CC(=O)N(CC(=O)N(CC(N)=O)Cc1cccc(F)c1)Cc1cccc(F)c1)Cc1cccc(F)c1)Cc1cccc(F)c1)Cc1cccc(F)c1)Cc1cccc(F)c1)Cc1cccc(F)c1)Cc1cccc(F)c1` [Peptoid 24, (NLysNmfbNmfb)4], the “MIC E. coli” value in assay [1] was determined as 25 µM. In assay [2], the “MIC S. epidermidis” value was determined as 3 µM. For the same molecule, the “MIC P. aeruginosa” value in assay [3] (setting [5]) was determined as 25 µM. The “MIC S. aureus” value in assay [4] (setting [5]) was 6 µM.
On to `CCCCCN(CC(=O)N(CC(=O)N(CC(=O)N(CCCCN)CC(=O)N(CC(=O)N(CC(N)=O)[C@@H](C)c1ccccc1)[C@@H](C)c1ccccc1)[C@@H](C)c1ccccc1)[C@@H](C)c1ccccc1)C(=O)CN(C(=O)CN(C(=O)CN(CCCCN)C(=O)CN(C(=O)CN(C(=O)CNCCCCN)[C@@H](C)c1ccccc1)[C@@H](C)c1ccccc1)[C@@H](C)c1ccccc1)[C@@H](C)c1ccccc1` [Peptoid 32, (NLysNspeNspe)2(NamyNspeNspe)(NLysNspeNspe)], for which the “MIC E. coli” value in assay [1] is greater than 100 µM. In addition, in assay [2], the “MIC S. epidermidis” value came to 2 µM. In addition, the “MIC P. aeruginosa” value is greater than 100 µM in assay [3] (ATCC 15692, 16 h) and 100 µM in assay [3] (setting [5]). Further, the “MIC S. aureus” value in assay [4] (setting [5]) was 6 µM.

The record behind these values is article PMC6072100, “Exploring the links between peptoid antibacterial activity and toxicity” (MedChemComm, 2017).
